“And” between values parts separate entries of the source, which are not always exact repeats. Equal values may be shown once. Inconclusive results and toxic doses are left out. The calls were made as follows: active = survival T/C of 150% or more; inactive = T/C below 125% in these data.
Test system: P388 leukemia ip, CD2F1 mice, survival T/C
Experiment: NCI In Vivo Anticancer Drug Screen. Data for tumor model P388 Leukemia (intraperitoneal) in CD2F1 (CDF1) mice
Settings: endpoint: median survival time, higher = longer survival
How it was run: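 Mice carrying the transplanted tumor received test compound or vehicle. Survival was recorded in each group, and the value is the treated-group measurement divided by that of the vehicle-treated control group.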

[1] = dose: 50.0 mg/kg/injection, schedule: Q01DX009 (ip), vehicle: saline with Tween-80
[2] = dose: 50.0 mg/kg/injection, schedule: Q01DX005 (ip), vehicle: Klucel (hydroxypropylcellulose) (HPC)
[3] = dose: 100.0 mg/kg/injection, schedule: Q01DX005 (ip), vehicle: Klucel (hydroxypropylcellulose) (HPC)
[4] = dose: 200.0 mg/kg/injection, schedule: Q01DX005 (ip), vehicle: Klucel (hydroxypropylcellulose) (HPC)
[5] = dose: 60.0 mg/kg/injection, schedule: Q01DX005 (ip), vehicle: Klucel (hydroxypropylcellulose) (HPC)
[6] = dose: 120.0 mg/kg/injection, schedule: Q01DX005 (ip), vehicle: Klucel (hydroxypropylcellulose) (HPC)
[7] = dose: 240.0 mg/kg/injection, schedule: Q01DX005 (ip), vehicle: Klucel (hydroxypropylcellulose) (HPC)
[8] = dose: 60.0 mg/kg/injection, schedule: Q01DX005 (ip), vehicle: saline with Tween-80
[9] = dose: 120.0 mg/kg/injection, schedule: Q01DX005 (ip), vehicle: saline with Tween-80
[10] = dose: 240.0 mg/kg/injection, schedule: Q01DX005 (ip), vehicle: saline with Tween-80
[11] = dose: 50.0 mg/kg/injection, schedule: Q01DX005 (ip), vehicle: saline with Tween-80
[12] = dose: 100.0 mg/kg/injection, schedule: Q01DX005 (ip), vehicle: saline with Tween-80

Measured: T/C

C=CC(C#N)(C=C)C=C
inactive: dose: 12.5 mg/kg/injection, schedule: Q01DX009 (ip), vehicle: saline with Tween-80 104 % of control | dose: 25.0 mg/kg/injection, schedule: Q01DX009 (ip), vehicle: saline with Tween-80 103 % of control | [1] 108 % of control

COc1ccc(Cc2cc3c(cc2OCC(=O)NN)OCO3)cc1
inactive: [2] 89 % of control | [3] 88 % of control | [4] 91 % of control

CC(C)C(NC(=O)CCNC(=O)OCc1ccccc1)C(=O)O (stereo unspecified)
inactive: [3] 102 % of control | [4] 100 % of control | dose: 400.0 mg/kg/injection, schedule: Q01DX005 (ip), vehicle: Klucel (hydroxypropylcellulose) (HPC) 96 % of control

Clc1ccc(-c2c(-c3ccccc3)c3n(c2Sc2ccccc2)CCC3)cc1
inactive: [5] 92 % of control | [6] 89 % of control | [7] 86 % of control

C=C(COC(C)=O)CC(CC(=C)CC(OC(C)=O)Sc1ccccc1)S(=O)(=O)c1ccccc1 (stereo unspecified)
inactive: dose: 60.0 mg/kg/injection, schedule: Q01DX005 (ip), vehicle: saline + Tween-80 + alcohol 106 % of control | dose: 120.0 mg/kg/injection, schedule: Q01DX005 (ip), vehicle: saline + Tween-80 + alcohol 104 % of control | dose: 240.0 mg/kg/injection, schedule: Q01DX005 (ip), vehicle: saline + Tween-80 + alcohol 104 % of control

COC(=O)c1c[nH]c(=O)[nH]c1=O
inactive: [8] 94 % of control | [9] 105 % of control | [10] 112 % of control

Cc1cccc(-c2nc(=S)nc(N)s2)c1
inactive: dose: 100.0 mg/kg/injection, schedule: Q01DX001 (ip), vehicle: saline with Tween-80 95 % of control | dose: 200.0 mg/kg/injection, schedule: Q01DX001 (ip), vehicle: saline with Tween-80 93 % of control

COc1ccc2cc1Oc1ccc(cc1)CC1c3cc(OC)c(OC)c(c3CCN1C)Oc1c(OC)c(OC)cc3c1[C@H](C2)NCC3 (stereo partly specified)
inactive: dose: 2.75 mg/kg/injection, schedule: Q01DX005 (ip), vehicle: Klucel (hydroxypropylcellulose) (HPC) 90 % of control | dose: 5.5 mg/kg/injection, schedule: Q01DX005 (ip), vehicle: Klucel (hydroxypropylcellulose) (HPC) 99 % of control | dose: 11.0 mg/kg/injection, schedule: Q01DX005 (ip), vehicle: Klucel (hydroxypropylcellulose) (HPC) 99 % of control | dose: 22.0 mg/kg/injection, schedule: Q01DX005 (ip), vehicle: Klucel (hydroxypropylcellulose) (HPC) 94 % of control

Nc1ccccc1C(=O)/C=C/c1ccccc1
inactive: [8] 100 % of control | [9] 100 % of control | [10] 100 % of control

CN1CCC(O)(c2ncc(Br)c3ccccc23)CC1
inactive: dose: 60.0 mg/kg/injection, schedule: Q01DX005 (ip), vehicle: saline + alcohol 97 % of control | dose: 120.0 mg/kg/injection, schedule: Q01DX005 (ip), vehicle: saline + alcohol 93 % of control

O=C(CSc1nc2ccccc2s1)NCCO
inactive: [11] 97 % of control | [12] 99 % of control | dose: 200.0 mg/kg/injection, schedule: Q01DX005 (ip), vehicle: saline with Tween-80 97 % of control

CCCNN1CCN(c2ccncc2S(=O)(=O)N2CCCCC2)CC1
inactive: [5] 98 % of control | [6] 99 % of control | [7] 94 % of control

CS(=O)(=O)c1nnnn1-c1ccccc1
inactive: dose: 12.5 mg/kg/injection, schedule: Q04DX003 (ip), vehicle: saline with Tween-80 106 % of control | dose: 25.0 mg/kg/injection, schedule: Q04DX003 (ip), vehicle: saline with Tween-80 106 % of control | dose: 50.0 mg/kg/injection, schedule: Q04DX003 (ip), vehicle: saline with Tween-80 102 % of control and 112 % of control | dose: 100.0 mg/kg/injection, schedule: Q04DX003 (ip), vehicle: saline with Tween-80 105 % of control

C=C1C2CCC3C(CCC4C35CCC[C@]4(C)CN3CCO[C@H]35)(C2)[C@H]1O (stereo partly specified)
inactive: dose: 1.0 mg/kg/injection, schedule: Q01DX009 (ip), vehicle: Klucel (hydroxypropylcellulose) (HPC) 100 % of control | dose: 2.0 mg/kg/injection, schedule: Q01DX009 (ip), vehicle: Klucel (hydroxypropylcellulose) (HPC) 98 % of control | dose: 4.0 mg/kg/injection, schedule: Q01DX009 (ip), vehicle: Klucel (hydroxypropylcellulose) (HPC) 106 % of control | dose: 8.0 mg/kg/injection, schedule: Q01DX009 (ip), vehicle: Klucel (hydroxypropylcellulose) (HPC) 96 % of control

CC(=O)OC1CC(O)C23COC(O)C1(C)C2CC(O)C1(C)C3C(=O)C(O)C2(C)C(c3ccoc3)CC3OC321 (stereo unspecified)
inactive: dose: 0.13 mg/kg/injection, schedule: Q01DX009 (ip), vehicle: saline + alcohol 91 % of control | dose: 0.25 mg/kg/injection, schedule: Q01DX009 (ip), vehicle: saline + alcohol 93 % of control | dose: 0.5 mg/kg/injection, schedule: Q01DX009 (ip), vehicle: saline + alcohol 90 % of control | dose: 1.0 mg/kg/injection, schedule: Q01DX009 (ip), vehicle: saline + alcohol 94 % of control | dose: 1.25 mg/kg/injection, schedule: Q01DX009 (ip), vehicle: Klucel (hydroxypropylcellulose) (HPC) 104 % of control | dose: 2.5 mg/kg/injection, schedule: Q01DX009 (ip), vehicle: Klucel (hydroxypropylcellulose) (HPC) 95 % of control

CCN=NNc1ccc(C(C)=O)cc1
inactive: dose: 12.5 mg/kg/injection, schedule: Q01DX009 (ip), vehicle: distilled water + Tween-80 95 % of control | dose: 25.0 mg/kg/injection, schedule: Q01DX009 (ip), vehicle: distilled water + Tween-80 109 % of control and 90 % of control | dose: 50.0 mg/kg/injection, schedule: Q01DX009 (ip), vehicle: distilled water + Tween-80 109 % of control and 92 % of control | dose: 100.0 mg/kg/injection, schedule: Q01DX009 (ip), vehicle: distilled water + Tween-80 104 % of control

C[CH2][Ge]([CH2]C)[CH2]C.C[CH2][Ge]([CH2]C)[CH2]C(=O)OC
inactive: [2] 99 % of control | [3] 100 % of control | [4] 100 % of control

O=C(/C=C/c1c[nH]c2ccccc12)c1ccc([N+](=O)[O-])cc1
inactive: dose: 15.0 mg/kg/injection, schedule: Q01DX005 (ip), vehicle: saline with Tween-80 100 % of control | dose: 30.0 mg/kg/injection, schedule: Q01DX005 (ip), vehicle: saline with Tween-80 86 % of control | [8] 97 % of control

c1ccc(Nc2ccncc2)cc1
inactive: dose: 1.56 mg/kg/injection, schedule: Q01DX009 (ip), vehicle: saline 95 % of control | dose: 3.12 mg/kg/injection, schedule: Q01DX009 (ip), vehicle: saline 95 % of control | dose: 6.25 mg/kg/injection, schedule: Q01DX009 (ip), vehicle: saline 100 % of control | dose: 12.5 mg/kg/injection, schedule: Q01DX009 (ip), vehicle: saline 100 % of control | dose: 25.0 mg/kg/injection, schedule: Q04DX003 (ip), vehicle: saline sonified 100 % of control | dose: 50.0 mg/kg/injection, schedule: Q04DX003 (ip), vehicle: saline sonified 90 % of control | dose: 100.0 mg/kg/injection, schedule: Q04DX003 (ip), vehicle: saline sonified 100 % of control

CN1CCC(c2ccccc2)(C(O)(c2ccccc2)c2ccccc2)CC1
inactive: dose: 12.5 mg/kg/injection, schedule: Q01DX005 (ip), vehicle: saline with Tween-80 90 % of control | dose: 25.0 mg/kg/injection, schedule: Q01DX005 (ip), vehicle: saline with Tween-80 100 % of control | [11] 100 % of control and 111 % of control | [12] 107 % of control

S=C(N/N=C(\c1ccccc1)c1ccccn1)SCc1ccccc1
inactive: [1] 99 % of control | dose: 100.0 mg/kg/injection, schedule: Q01DX009 (ip), vehicle: saline with Tween-80 90 % of control | dose: 200.0 mg/kg/injection, schedule: Q01DX009 (ip), vehicle: saline with Tween-80 97 % of control

COc1ccc2nc(C#N)sc2c1
inactive: [8] 86 % of control | [9] 92 % of control | [10] 100 % of control

CCC(C)C1NC(=O)C2CCCN2C(=O)C(CC2CO2)OC(=O)CCNC(=O)C(C)N(C)C(=O)C(C(C)C)N(C)C1=O (stereo unspecified)
inactive: dose: 1.56 mg/kg/injection, schedule: Q01DX005 (ip), vehicle: water 100 % of control | dose: 3.12 mg/kg/injection, schedule: Q01DX005 (ip), vehicle: water 109 % of control

COC(=O)CC1(C(=O)OC)c2ccc3c(C(=O)C(F)(F)F)cccc3c2N2CCCC21 (stereo unspecified)
inactive: dose: 100.0 mg/kg/injection, schedule: Q04DX002 (ip), vehicle: saline 101 % of control | dose: 200.0 mg/kg/injection, schedule: Q04DX002 (ip), vehicle: saline 102 % of control | dose: 400.0 mg/kg/injection, schedule: Q04DX002 (ip), vehicle: saline 102 % of control

From PubChem BioAssay AID330 (DTP/NCI, 2004)
